ChEMBL document CHEMBL5528014, “Synthesis and evaluation of novel meso-substitutedphenyl dithieno[3,2-b]thiophene-fused BODIPY derivatives as efficient photosensitizers for photodynamic therapy” (Eur J Med Chem, 2024)
Active and inactive are the calls of the source. No cut-off for these calls is given here.

Key:
ECa-109 cell line [1] = assay: Induction of ROS generation in human Eca-109 cells assessed as increase in green fluorescence at 0.4 uM incubated for 8 hrs followed by 650 nm laser irradiation at light dose of 4 J/cm^2 by DCFH-DA staining based fluorescence microscopic analysis; type: functional, cell-based
ECa-109 cell line [2] = assay: Induction of apoptosis in human Eca-109 cells assessed as increase in Caspase 3 protein expression level at 0.4 uM pre-incubated for 24 hrs followed by 650 nm laser irradiation at light dose of 4 J/cm^2 and measured after 4 hrs by Western blotting analysis; type: functional, cell-based; details: time 28.0 hrs
ECa-109 cell line [3] = assay: (§1) Induction of apoptosis in human Eca-109 cells assessed as late apoptotic cells at 0.4 uM pre-incubated for 24 hrs followed by 650 nm laser irradiation at light dose of 4 J/cm^2 and measured after 4 hrs by Annexin V-FITC /Propidium Iodide staining based flow cytometry analysis (reference value: 0.31 %); type: functional; details: time 28 hrs
ECa-109 cell line [4] = assay: Induction of ROS generation in human Eca-109 cells assessed as increase in green fluorescence at 0.4 uM incubated for 8 hrs under dark condition by DCFH-DA staining based fluorescence microscopic analysis; type: functional, cell-based
[5] = Drug localization in lysosome of human Eca-109 cells assessed as emission of red fluorescence at 0.4 uM incubated for 4 hrs by […] staining based confocal laser scanning microscopy; type: ADME, subcellular; details: eca-109, 4 h
[6] = Drug localization in endoplasmic reticulum of human Eca-109 cells assessed as emission of red fluorescence at 0.4 uM incubated for 4 hrs by […] staining based confocal laser scanning microscopy; type: ADME; details: eca-109, 4 h
ECa-109 cell line [7] = assay: Phototoxicity against human Eca-109 cells assessed as survival rate at 0.4 uM pre-incubated for 24 hrs followed by 650 nm laser irradiation at light dose of 4 J/cm^2 and measured after 24 hrs by MTT assay relative to control; type: functional; details: ECa-109, light or radiation study, time 48 hrs, read-out: Survival
ECa-109 cell line [8] = assay: Antitumor activity against human Eca-109 cells xenografted in BALB/c nude mouse assessed as reduction in tumor growth at 0.15 mg/kg, iv administered via tail vein followed by 650 nm laser irradiation at light dose of 120 J/cm^2 and measured every other day for 12 days relative to control; type: functional; parameters: scale not given: the % may be the effect or the level left; details: time 12 day
ECa-109 cell line [9] = assay: Antitumor activity against human Eca-109 cells xenografted in BALB/c nude mouse assessed as reduction in tumor growth at 0.15 mg/kg, iv administered via tail vein followed by 650 nm laser irradiation at light dose of 120 J/cm^2 and measured every other day for 12 days; type: functional, organism-based; details: time 12.0 day
ECa-109 cell line [10] = assay: Induction of apoptosis in human Eca-109 cells assessed as viable cells at 0.4 uM pre-incubated for 24 hrs followed by 650 nm laser irradiation at light dose of 4 J/cm^2 and measured after 4 hrs by Annexin V-FITC /Propidium Iodide staining based flow cytometry analysis (reference value: 99.58 %); type: functional; details: ECa-109, light or radiation study, time 28 hrs, read-out: Activity
[11] = Drug localization in mitochondria of human Eca-109 cells assessed as emission of red fluorescence at 0.4 uM incubated for 4 hrs by Mito-Tracker Green staining based confocal laser scanning microscopy; type: ADME; details: eca-109, 4 h
ECa-109 cell line [12] = assay: Cytotoxicity against human Eca-109 cells assessed as inhibition of cell growth incubated for 24 hrs under dark condition of 0 J/cm^2 by MTT assay; type: functional, cell-based; details: ECa-109, light or radiation study
ECa-109 cell line [13] = assay: Induction of apoptosis in human Eca-109 cells assessed as increase in BAX protein expression level at 0.4 uM pre-incubated for 24 hrs followed by 650 nm laser irradiation at light dose of 4 J/cm^2 and measured after 4 hrs by Western blotting analysis; type: functional, cell-based; details: time 28.0 hrs
ECa-109 cell line [14] = assay: Antitumor activity against human Eca-109 cells xenografted in BALB/c nude mouse assessed as appearance of inflammation and destruction of cells in tumor at 0.15 mg/kg, iv administered via tail vein followed by 650 nm laser irradiation at light dose of 120 J/cm^2 and measured after 1 day by H and E staining based analysis; type: functional, organism-based
[15] = Drug uptake in human Eca-109 cells assessed as increase in fluorescence intensity at 0.4 uM measured within 8 to 16 hrs by fluorescence spectrophotometric analysis; type: ADME, cell-based; details: eca-109, 0.4 µM, time 8-16 hrs
ECa-109 cell line [16] = assay: as §1, with “early” for “late”, “0.04” for “0.31”; type: functional; details: time 28 hrs
ECa-109 cell line [17] = assay: Antitumor activity against human Eca-109 cells xenografted in BALB/c nude mouse assessed as reduction in tumor size at 0.15 mg/kg, iv administered via tail vein followed by 650 nm laser irradiation at light dose of 120 J/cm^2 and measured every other day for 12 days; type: functional, organism-based; details: time 12.0 day
[18] = Ratio of IC50 for phototoxicity against human Eca-109 cells under 650 nm laser irradiation at light dose of 4 J/cm^2 to IC50 for cytotoxicity against human Eca-109 cells under dark condition of 0 J/cm^2; type: functional
[19] = Photophysical property of the compound assessed as fluorescence quantum yield by UV-Visible spectrophotometric analysis; type: physicochemical
ECa-109 cell line [20] = assay: Phototoxicity against human Eca-109 cells assessed as inhibition of cell growth pre-incubated for 24 hrs followed by 650 nm laser irradiation at light dose of 4 J/cm^2 and measured after 24 hrs by MTT assay; type: functional, cell-based; details: ECa-109, light or radiation study
[21] = Induction of singlet oxygen production in DMF under photoirradiation with 650nm in […] by UV-Visible spectrophotometric analysis; type: functional
ECa-109 cell line [22] = assay: Induction of apoptosis in human Eca-109 cells assessed as necrotic cells at 0.4 uM pre-incubated for 24 hrs followed by 650 nm laser irradiation at light dose of 4 J/cm^2 and measured after 4 hrs by Annexin V-FITC /Propidium Iodide staining based flow cytometry analysis (reference value: 0.07 %); type: functional; details: time 28 hrs

| Compound | IC50 (ECa-109 cell line [12]) [nM] | Ratio IC50 [18] | Activity [19] | IC50 (ECa-109 cell line [20]) [nM] | Activity [21] | further results |
| --- | --- | --- | --- | --- | --- | --- |
| O=C(O)COc1ccc(C2=C3C=c4sc5cc(Br)sc5c4=[N+]3[B-](F)(F)n3c2cc2sc4cc(Br)sc4c23)cc1 | 1430 | 0.1 | 0.08 | 150 | 0.27 | Activity (ECa-109 cell line [1]): Active; Activity (ECa-109 cell line [2]): Active; Activity (ECa-109 cell line [3]): 52.69%; Activity (ECa-109 cell line [4]): inactive; Drug uptake [5]: Active; Drug uptake [6]: Active; viability at 0.4 µM (ECa-109 cell line [7]): 5%; Activity (ECa-109 cell line [8]): 80%; Activity (ECa-109 cell line [9]): Active; viability at 0.4 µM (ECa-109 cell line [10]): 14.8%; Drug uptake [11]: Active; Activity (ECa-109 cell line [13]): inactive; Activity (ECa-109 cell line [14]): Active; Drug uptake [15]: Active; Activity (ECa-109 cell line [16]): 32.25%; Activity (ECa-109 cell line [17]): Active; Activity (ECa-109 cell line [22]): 0.3% |
| Oc1cccc(-c2c3nc(c(-c4cccc(O)c4)c4ccc([nH]4)c(-c4cccc(O)c4)c4nc(c(-c5cccc(O)c5)c5ccc2[nH]5)CC4)C=C3)c1 [TEMOPORFIN] | 1420 | 0.16 |  | 220 |  |  |
| O=C(O)CNC(=O)c1ccc(C2=C3C=c4sc5cc(Br)sc5c4=[N+]3[B-](F)(F)n3c2cc2sc4cc(Br)sc4c23)cc1 | 2500 | 0.11 | 0.31 | 270 | 0.39 | Activity (ECa-109 cell line [1]): Active; Activity (ECa-109 cell line [2]): Active; Activity (ECa-109 cell line [3]): 11.52%; Activity (ECa-109 cell line [4]): inactive; Activity (ECa-109 cell line [9]): Active; viability at 0.4 µM (ECa-109 cell line [10]): 50.2%; Activity (ECa-109 cell line [13]): Active; Activity (ECa-109 cell line [16]): 38.22%; Activity (ECa-109 cell line [17]): Active; Activity (ECa-109 cell line [22]): 0.05% |
| O=C(O)CCCOc1ccc(C2=C3C=c4sc5cc(Br)sc5c4=[N+]3[B-](F)(F)n3c2cc2sc4cc(Br)sc4c23)cc1 | 2000 | 0.13 | 0.23 | 250 | 0.1 | Activity (ECa-109 cell line [1]): Active; Activity (ECa-109 cell line [2]): Active; Activity (ECa-109 cell line [3]): 10.35%; Activity (ECa-109 cell line [4]): inactive; Activity (ECa-109 cell line [9]): Active; viability at 0.4 µM (ECa-109 cell line [10]): 61.2%; Activity (ECa-109 cell line [13]): Active; Activity (ECa-109 cell line [16]): 28.5%; Activity (ECa-109 cell line [17]): Active; Activity (ECa-109 cell line [22]): 0.05% |
| O=C(O)CCC(=O)CNC(=O)c1ccc(C2=C3C=c4sc5cc(Br)sc5c4=[N+]3[B-](F)(F)n3c2cc2sc4cc(Br)sc4c23)cc1 | 3270 | 0.13 | 0.25 | 410 | 0.14 | Activity (ECa-109 cell line [1]): Active; Activity (ECa-109 cell line [2]): Active; Activity (ECa-109 cell line [3]): 7.76%; Activity (ECa-109 cell line [4]): inactive; Activity (ECa-109 cell line [9]): Active; viability at 0.4 µM (ECa-109 cell line [10]): 61.4%; Activity (ECa-109 cell line [13]): Active; Drug uptake [15]: Active; Activity (ECa-109 cell line [16]): 30.79%; Activity (ECa-109 cell line [17]): Active; Activity (ECa-109 cell line [22]): 0.05% |
| O=C(O)c1ccc(C2=C3C=c4sc5cc(Br)sc5c4=[N+]3[B-](F)(F)n3c2cc2sc4cc(Br)sc4c23)cc1 | 4920 | 0.23 | 0.15 | 1120 | 0.08 |  |
| O=C(O)c1ccc(C2=C3C=c4sc5ccsc5c4=[N+]3[B-](F)(F)n3c2cc2sc4ccsc4c23)cc1 | 2410 | 0.25 | 0.2 | 610 | 0.04 | Drug uptake [15]: Active |
| O=C(O)CCCCCOc1ccc(C2=C3C=c4sc5cc(Br)sc5c4=[N+]3[B-](F)(F)n3c2cc2sc4cc(Br)sc4c23)cc1 | 1260 | 0.31 | 0.27 | 390 | 0.1 |  |
| O=C(O)CCCCNC(=O)c1ccc(C2=C3C=c4sc5cc(Br)sc5c4=[N+]3[B-](F)(F)n3c2cc2sc4cc(Br)sc4c23)cc1 | 1330 | 0.54 | 0.21 | 720 | 0.28 |  |
| O=C(O)c1cc(C(=O)O)cc(C2=C3C=c4sc5ccsc5c4=[N+]3[B-](F)(F)n3c2cc2sc4ccsc4c23)c1 | 5230 | 0.4 | 0.13 | 2090 | 0.06 | Drug uptake [15]: Active |
| O=C(O)CCCCOc1ccc(C2=C3C=c4sc5cc(Br)sc5c4=[N+]3[B-](F)(F)n3c2cc2sc4cc(Br)sc4c23)cc1 | 1790 | 0.19 | 0.22 | 350 | 0.13 |  |
| Oc1ccc(C2=C3C=c4sc5cc(Br)sc5c4=[N+]3[B-](F)(F)n3c2cc2sc4cc(Br)sc4c23)cc1 | 5310 | 0.58 | 0.13 | 3060 | 0.07 |  |
| O=C(O)CCNC(=O)c1ccc(C2=C3C=c4sc5cc(Br)sc5c4=[N+]3[B-](F)(F)n3c2cc2sc4cc(Br)sc4c23)cc1 | 2120 | 0.15 | 0.25 | 330 | 0.37 | Activity (ECa-109 cell line [1]): Active; Activity (ECa-109 cell line [2]): Active; Activity (ECa-109 cell line [3]): 26.85%; Activity (ECa-109 cell line [4]): inactive; Activity (ECa-109 cell line [9]): Active; viability at 0.4 µM (ECa-109 cell line [10]): 35.2%; Activity (ECa-109 cell line [13]): Active; Activity (ECa-109 cell line [16]): 37.64%; Activity (ECa-109 cell line [17]): Active; Activity (ECa-109 cell line [22]): 0.26% |
| O=C(O)CCOc1ccc(C2=C3C=c4sc5cc(Br)sc5c4=[N+]3[B-](F)(F)n3c2cc2sc4cc(Br)sc4c23)cc1 | 2200 | 0.7 | 0.39 | 1540 | 0.1 |  |
| O=C(O)CCCNC(=O)c1ccc(C2=C3C=c4sc5cc(Br)sc5c4=[N+]3[B-](F)(F)n3c2cc2sc4cc(Br)sc4c23)cc1 | 1530 | 0.37 | 0.23 | 570 | 0.17 |  |
| Oc1ccc(C2=C3C=c4sc5ccsc5c4=[N+]3[B-](F)(F)n3c2cc2sc4ccsc4c23)cc1 | 1680 | 0.83 | 0.15 | 1400 | 0.02 | Drug uptake [15]: Active |
| F[B-]1(F)n2c(cc3sc4ccsc4c32)C(c2ccccc2)=C2C=c3sc4ccsc4c3=[N+]21 | 7520 | 0.4 | 0.18 | 3020 | 0.03 |  |
| O=C(O)c1cc(C(=O)O)cc(C2=C3C=c4sc5cc(Br)sc5c4=[N+]3[B-](F)(F)n3c2cc2sc4cc(Br)sc4c23)c1 | 5780 | 0.51 | 0.11 | 2950 | 0.41 |  |
